Measured values published in paper PMC5742583, “A Functional Analysis on the Interspecies Interaction between Mouse LFA-1 and Human Intercellular Adhesion Molecule-1 at the Cell Level” (Frontiers in Immunology, 2017).
Read-outs that look alike come from different tables or passages of the source.

How the values were obtained:
ICAM-1/LFA-1 interaction = conditions: cited from earlier work
Protocol: Human and mouse LFA-1-derived peptides (human: CD11a237–261; mouse: CD11a235–259) were purchased from GenScript (Piscataway, USA) without any modification. […] Besides, incubation cells with a mouse antiCD1 ...

[1] = system: mouse B cells (ICAM-1/LFA-1 interaction); assay: Homotypic B cell aggregation assay; type: cell-based; conditions: overnight 37°C, clumping index 1-10
Protocol: To obtain these cells, mice were sacrificed by cervical dislocation, the spleens were removed, and splenocytes were isolated and resuspended in RPMI 10% FBS at a final concentration of 10^6 cells/ml. Cells were treated with 10 µg/ml PHA and 1 µg/ml ionomycin to activate LFA-1 and incubated at 37°C 5% CO2 overnight in flat bottom 96-well plates (10^5 cells) in the presence of peptides from LFA-1 and c-Myc (control) 250 µM, D1D2, D1D2Fc, and human IgG1 10 µg, EGTA 1 mM and lovastatin 100 µM. A qualitative aggregation assay was carried out as described ([36], [41]) with a slight modification. Briefly, positive control stimulated cell samples were arbitrarily assigned a clumping index of 10 and lovastatin samples an index of 1. Test samples were ranked from 1 to 10 based upon degree of clumping relative to stimulated and lovastatin-treated samples. Results were verified by a blind independent rating performed by a second observer.
Fresh mouse B cells were obtained from splenocytes and stimulated with PHA and ionomycin to induce homotypic adhesion. The results were quantified by establishing a clumping index that represents the degree of cell aggregation, which reflects the inhibition efficiency (Figure 3B). Cell aggregation was ranked by a clumping index from 1 to 10 based on the degree of aggregation in comparison with the stimulated cells (positive control, clumping index = 10).
Figure 3 Effect of human (ICAM-1) on the aggregation of mouse spleen cells. (A) Splenocytes isolated from mice were non treated (a) or activated with PHA (b–i) as described in Section “Experimental Procedures” and further incubated overnight with (b) medium; (c) IgG1; (d) c-Myc peptide; (e) EGTA; (f) lovastatin; (g) D1D2; (h) D1D2Fc; (i) mouse LFA-1 peptide CD11a235–259. Images were taken with an optical microscope (original magnification, 10×). Representative images from two independent experiments with similar results are shown. (B) The graph represents the rate of agglutination depending on the inhibitory effect on ICAM-1/LFA-1 interaction. Cells stimulated with PHA and ionomycin, which served as a positive control, were arbitrarily assigned agglutination index 10, which represents a percentage of aggregation between 90 and 100%. Homotypic aggregation was classified from 1 to 10 depending on the degree of aggregation relative to cells stimulated. The result was verified by a second independent observer. Values are presented as mean ± SEM of two separate experiments performed by duplicate. Statistical analysis was performed using two-way analysis of variance with Bonferroni’s posttest comparing with c-Myc peptide control. *p < 0.05; ***p < 0.001.

VLA-4 = conditions: ref [42], [43]; cited from earlier work
Text: (§1) In contrast, cell aggregates were clearly visible in cultures after stimulation (Figure 3A, b). […] Macrophage phenotype was confirmed by testing surface antigens by flow cytometry. Monocyte-derived macrophages expressed higher levels of HLA-DR and CD14 than undifferentiated monocytes ([51]). In addition, expression of CD54 (ICAM-1) was diminished in comparison with freshly isolated monocytes (Figure 6B). […] As shown ...

Mac-1 = conditions: ref [42], [43]; cited from earlier work
Text: as §1

D1D2Fc = target: T1, D1D2Fc (Homo sapiens, UniProt P05362); conditions: peptide derived from human LFA-1, observed previously, ref [34], cited from earlier work
T1 construct: The synthetic first two domains of ICAM-1 alone (D1D2) or linked with human IgG1 Fc region (D1D2Fc) were expressed in Escherichia coli; made in house; host or cells: Escherichia coli
Text: In a previous work, we have shown that purified human recombinant ICAM-1 was able to interact with peptides derived from human LFA-1 ([34]). […] The complex formation was net exothermic as would be expected for a reaction in which specific intermolecular interactions are established. Besides, if there were no interaction, there would not be any signal. This value was obtained by fitting to the binding isotherm a 1:n interaction model, which assumes a single type of binding sites.

[2] = system: K562 cells killed by human NK cells (ICAM-1/LFA-1); assay: NK cell-mediated cytotoxicity on K562; type: cell-based; conditions: peptide 250 µM, preincubation 45 min 37°C; effector:target 3:1, 4 h; annexin-V/7-AAD by FACS; vs c-Myc control; two experiments by duplicate
Protocol: The effect of human and mouse peptides derived from LFA-1 on ICAM-1/LFA-1 dependent cell–cell contact was analyzed by performing a cell cytotoxicity assay using human primary NK cells and the NK cell sensitive human leukemia K562. Primary activated human NK cells were generated by culturing PBMCs with mitomycin C inactivated R69 cells for 5 days and enriched by MACS using anti-CD56 antibodies as previously described ([39]). Cell cytotoxicity induced by NK cells on K562 was analyzed by flow cytometry as previously described ([39]). Briefly, K562 cells were preincubated with medium alone, in the presence of 250 µM of human and mouse peptides from LFA-1 or D1D2 (15 µg) for 45 min at 37°C. Then, NK cells were added at 3:1 effector:target cell ratio and incubated for 4 h at 37°C, 5% CO2. Subsequently, phosphatidylserine exposure and 7-AAD uptake were analyzed by FACS using the annexin-V/7-AAD kit from Immunostep. As a control, the cells were incubated alone with the inhibitors to evaluate their possible toxicity, which was not significant in any case.
Figure 4 Inhibition of natural killer (NK) cell-mediated cytotoxicity by human intercellular adhesion molecule-1. […] Cell death was analyzed by measuring translocation of PS by flow cytometry in the negative population for CFSE as described in experimental procedures. […]

[3] = system: gp33-pulsed EL4 cells killed by mouse Tc cells (ICAM-1/LFA-1); assay: CD8+ T cell-mediated cytotoxicity on EL4; type: cell-based; conditions: ICAM-1 proteins, several (increasing) amounts, preincubation 45 min 37°C; effector:target 10:1, 4 h; annexin-V/7-AAD by FACS; three experiments by duplicate
human monocytes = assay: Human monocyte adhesion to plastic (MTT); type: cell-based; conditions: human D1D2 and D1D2Fc, different concentrations, 37°C overnight, three experiments by duplicate
Protocol: (§2) Monocytes were isolated from human peripheral blood mononuclear cells (PBMCs), obtained from healthy donors (Blood and Tissue Bank of Aragon; approved by the CEICA, number: C.I.PI11/006) by density gradient centrifugation using Ficoll-Paque (GE healthcare). PBMCs were resuspended at a concentration of 2.5 × 10^6 cells/ml in RPMI medium supplemented with 1% heat-inactivated human AB serum (Sigma). Cells were cultured in a Petri dish for 2 h at 37°C 5% CO2. […]
(§3) Freshly isolated monocytes or differentiated macrophages were washed twice with PBS and incubated with trypsin (PAN Biotech) for 30 min at 37°C 5% CO2. […] Next day, every well was washed twice with PBS, complete RPMI medium was added and the number or adherent remaining cells was quantified by a MTT colorimetric test ([38]). […]
(§4) Figure 6 LFA-1 is involved in human macrophage adhesion. […] (B) Macrophage phenotype was analyzed by flow cytometry testing the expression of HL-DR, CD14, CD54, and CD11a. […] Subsequently, every well was washed twice with PBS to remove non-adherent cells and quantification of cell adhesion was carried out by MTT as described in Section “Experimental Procedures.” Values are presented as mean ± SEM of three independent experiments performed by duplicate. […]

human macrophages = assay: Human macrophage adhesion to plastic (MTT); type: cell-based; conditions: human D1D2 and D1D2Fc, different concentrations, 37°C overnight, three experiments by duplicate
Protocol: as §2, §3, §4

[4] = target: human ICAM-1 first two domains linked with human IgG1 Fc region (D1D2Fc) (human); assay: ITC; 150 µM peptide injected (28 injections of 10 µl) into 12 µM D1D2Fc in the cell, PBS, 25°C, VP-ITC; fitted with a 1:n interaction model with a single type of binding sites

T1 sequence (P05362 with tags, fused parts or gaps limits assumed): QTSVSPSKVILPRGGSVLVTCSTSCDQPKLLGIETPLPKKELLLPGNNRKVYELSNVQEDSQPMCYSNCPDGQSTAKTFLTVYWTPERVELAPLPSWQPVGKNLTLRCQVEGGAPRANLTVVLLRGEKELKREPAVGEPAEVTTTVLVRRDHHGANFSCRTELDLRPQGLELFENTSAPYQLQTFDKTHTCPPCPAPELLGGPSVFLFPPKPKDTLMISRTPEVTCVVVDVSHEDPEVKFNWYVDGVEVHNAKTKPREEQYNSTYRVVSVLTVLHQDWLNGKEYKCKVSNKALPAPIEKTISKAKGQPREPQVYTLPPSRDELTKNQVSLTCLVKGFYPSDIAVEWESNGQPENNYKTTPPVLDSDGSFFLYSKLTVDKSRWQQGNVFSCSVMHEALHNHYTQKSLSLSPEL

## O=C(O)CN(CCOCCOCCN(CC(=O)O)CC(=O)O)CC(=O)O [EGTA, reference compound]
ICAM-1/LFA-1 interaction; ref [42], [43]
  specific block of ICAM-1/LFA-1 interaction: specifically block ICAM-1/LFA-1 interaction
[1]; EGTA 1 mM, splenocytes activated with PHA and ionomycin
  inhibition of B cell aggregation: inhibit completely the aggregation
VLA-4
  effect on VLA-4: without affecting
Mac-1
  effect on Mac-1: without affecting

## ITDGEATDSGNIDAAKDIIRYIIGI [CD11a237–261, human LFA-1-derived peptide, purchased from GenScript without any modification]
ICAM-1/LFA-1 interaction; ref [36]
  ability to block ICAM-1/LFA-1 interaction: ability to block ICAM-1/LFA-1 interaction
D1D2Fc
  affinity for human ICAM-1 (D1D2Fc), in words: similar
D1D2Fc; listed as peptide of human LFA-1
  affinity for human ICAM-1 (D1D2Fc), in words: highest affinity
[2]
  inhibition of NK cell-mediated cell death of K562: blocked NK cell-mediated cell death

B1: Human ICAM-1: human ICAM-1 (D1D2Fc and D1D2) in this paper's tests; purified human ICAM-1 in ref [29] (protein, UniProt P05362 28-532, looked up)
Intercellular adhesion …: QTSVSPSKVILPRGGSVLVTCSTSCDQPKLLGIETPLPKKELLLPGNNRKVYELSNVQEDSQPMCYSNCPDGQSTAKTFLTVYWTPERVELAPLPSWQPVGKNLTLRCQVEGGAPRANLTVVLLRGEKELKREPAVGEPAEVTTTVLVRRDHHGANFSCRTELDLRPQGLELFENTSAPYQLQTFVLPATPPQLVSPRVLEVDTQGTVVCSLDGLFPVSEAQVHLALGDQRLNPTVTYGNDSFSAKASVSVTAEDEGTQRLTCAVILGNQSQETLQTVTIYSFPAPNVILTKPEVSEGTEVTVKCEAHPRAKVTLNGVPAQPLGPRAQLLLKATPEDNGRSFSCSATLEVAGQLIHKNQTRELRVLYGPRLDERDCPGNWTWPENSQQTPMCQAWGNPLPELKCLKDGTFPLPIGESVTVTRDLEGTYLCRARSTQGEVTRKVTVNVLSPRYEIVIITVVAAAVIMGTAGLSTYLYNRQRKIKKYRLQQAQKGTPMKPNTQATPP
[3]
  inhibition of Tc cell-mediated cell death of EL4: completely blocked cell death
[1]; protein 10 µg, splenocytes activated with PHA 10 µg/ml and ionomycin 1 µg/ml, two experiments by duplicate
  inhibition of B cell aggregation: significantly inhibited adhesion
Human monocytes
  inhibition of adhesion of human monocytes: completely inhibited
Human macrophages
  inhibition of adhesion of human macrophages: completely inhibited

## ITDGEASDKGNISAAHDITRYIIGI [mouse LFA-1-derived peptide CD11a(235-259)]
[4]
  Kd: 70 nM
